# Measured values published in US20210145846A1 (Kashiv BioSciences, LLC, priority 2017, published 2021).
# Read-outs that look alike come from different tables or passages of the source.
# What was measured:
# [1] = Storage stability of Formulations 1-3 (dl-α-tocopherol assay, total impurities); format: physicochemical; settings: various storage conditions
# Experimental: Three-week and four-week storage stabilities, as per Table 15, of Formulations 1-3 were determined under standard storage conditions of 5° C., storage at room temperature, and storage at 40° C./75% RH. The total impurities were less than 1% at the end of three- or four-week storage at 5° C., RT, and 40° C./75% RH.
# [2] = Viscosities of the components in the prototype formulations; format: physicochemical; settings: neat excipient
# Text: Once injected into the muscle tissue, it forms a depot and the formulation components begin to diffuse into the surrounding tissue and the circulatory system. The rate of diffusion for each component depends on the solubility, permeability, and viscosity of the formulation in the local environment of the depot. Notwithstanding the complexity of the in vivo situation, and without wishing to be held to a particular theory, it is expected that the viscosity of the formulation is a critical factor that affects the diffusion of the formulation components from the site of injection, including from the point of view of ease of injection, diffusion into the muscle tissue, and rate of absorption.
# [3] = system: HR-positive metastatic breast cancer; settings: cited from earlier work
# [4] = cited from earlier work
compound,measurement,setting,value
"Cc1c(C)c2c(c(C)c1O)CCC(C)(CCCC(C)CCCC(C)CCCC(C)C)O2 (racemic) [dl-α-Tocopherol, dl-α-tocopherol]",Stability of dl-α-Tocopherol in the formulations,[1],unstable and susceptible to degradation
OCc1ccccc1 [Benzyl alcohol],Viscosity (cp),[2],5.40 cp
"CCO [Ethyl alcohol (Ethanol), Ethanol]",Viscosity (cp),[2],1.04 cp
"C[C@]12CC[C@@H]3c4ccc(O)cc4C[C@@H](CCCCCCCCC[S+]([O-])CCCC(F)(F)C(F)(F)F)[C@H]3[C@@H]1CC[C@@H]2O (stereo partly drawn) [Fulvestrant, 7α-[9-[(4,4,5,5,5-pentafluoropentyl)sulfinyl]nonyl]-estra-1,3,5(10)-triene-3,17β-diol]",Median overall survival,[3]; fulvestrant 250 mg IM,22.3 months
same,Median overall survival,[3]; fulvestrant 500 mg IM,26.4 months
same,Progression-free survival (PFS),[3]; fulvestrant 500 mg compared with 250 mg,statistically significant increase
same,Solubility (mg/ml) at 25° C.,"[4]; in Benzyl alcohol, 25° C.",>200 mg/mL
same,Solubility (mg/ml) at 25° C.,"[4]; in Benzyl benzoate, 25° C.",6.15 mg/mL
same,Solubility (mg/ml) at 25° C.,"[4]; in Ethanol, 25° C.",>200 mg/mL
same,Solubility (mg/ml) at 25° C.,"[4]; in Ethyl oleate, 25° C.",1.25 mg/mL
same,Solubility (mg/ml) at 25° C.,"[4]; in Isopropyl myristate, 25° C.",0.80 mg/mL
same,Solubility (mg/ml) at 25° C.,"[4]; in Migloyl 810, 25° C.",3.06 mg/mL
same,Solubility (mg/ml) at 25° C.,"[4]; in Migloyl 812, 25° C.",2.72 mg/mL
same,Solubility (mg/ml) at 25° C.,"[4]; in Polyethylene glycol (PEG 400), 25° C.",22.5 mg/mL
same,Solubility (mg/ml) at 25° C.,"[4]; in Propylene glycol, 25° C.",4.0 mg/mL
same,Solubility (mg/ml) at 25° C.,"[4]; in SPAN ® 85, 25° C.",3.79 mg/mL
same,Solubility (mg/ml) at 25° C.,"[4]; in Sesame oil, 25° C.",0.58 mg/mL
CC(O)CO (stereo not shown) [Propylene glycol],Viscosity (cp),[2],42.00 cp
sorbitan monolaurate [SPAN ® 20],Viscosity (cp),[2],1000-2000 cp
